Test results as given in US5141934A, “Tetracyclic amines having pharmaceutical activity” (Warner-Lambert Company, priority 1990, dated 1992).
pIC50: −log10 of the molar value.

Molecular target: phencyclidine (PCP) receptors (noncompetitive NMDA antagonist binding site)
Assay: Tritiated 1[1-(2 thienyl)cyclohexyl]piperidine (TCP) binding, designated RBS1
Conditions: Table 1, read-out: RBSI IC50
Experimental: The ability of the compounds of the instant invention to interact with phencyclidine (PCP) receptors which represents a noncompetitive NMDA antagonist binding site, is shown in Table 1. Tritiated 1[1-(2 thienyl)cyclohexyl]piperidine (TCP) binding, designated RBS1, was carried out essentially as described in J. Pharmacol. Exp. Ther., 238, 739 (1986).

c1ccc2c(c1)C[C@H]1CN[C@@]23CCCC[C@@H]13 (relative stereo) [Example 14, (+/-)-(4aα,10α,10aα) 1,3,4,9,10,10a Hexahydro-2H-4a,10-(iminomethano)phenanthrene] was tested. Which pIC50 did it give?
Its pIC50 is 7.07.

With CN1C[C@@H]2Cc3ccccc3[C@]13CCCC[C@@H]23 (relative stereo) [Example 16, (+/-)-(4aα,10α,10aα) 1,3,4,9,10,10a-Hexahydro-12-methyl-2H 4a,10-(iminomethano)phenanthrene] as the compound, how does the pIC50 read?
Its pIC50 is 6.86.

With CCCN1C[C@@H]2Cc3ccccc3[C@]13CCCC[C@@H]23 (relative stereo) [Example 19, (+/-)-(4aα,10α,10aα)-1,3,4,9,10,10a-Hexahydro-12-propyl-2H-4a,10-(iminomethano)phenanthrene] as the compound, how does the pIC50 read?
The pIC50 was 7.27.

With c1ccc2c(c1)C[C@H]1CN(CC3CC3)[C@@]23CCCC[C@@H]13 (relative stereo) [Example 20, (+/-)-(4aα,10α,10aα)-12-(Cyclopropylmethyl)-1,3,4,9,10,10a-hexahydro-2H-4a,10-(iminomethano)-phenanthrene] as the compound, how does the pIC50 read?
Its pIC50 is 7.29.

c1ccc(C2(N3CCCCC3)CCCCC2)cc1 [PCP, phencyclidine] was tested. Which pIC50 did it give?
Its pIC50 is 7.40.

With c1csc(C2(N3CCCCC3)CCCCC2)c1 [TCP, 1[1-(2 thienyl)cyclohexyl]piperidine] as the compound, how does the pIC50 read?
Its pIC50 is 8.05.
